Data reported in patent US20130039928A1, “COMPOSITIONS AND METHODS FOR REVERSING CORTICOSTEROID RESISTANCE OR TREATING RESPIRATORY INFECTIONS” (priority 2010, published 2013).

Key:
[1] = tested on: IL-8 gene; conditions: sulforaphane treatment with DEX
Procedure: (§1) For inducing corticosteroid resistance, PMs were exposed to cigarette smoke condensate (CSC, 100 μg/ml; Murty Pharmaceuticals, Lexington, Ky.) for 16 h. Exposure to S-nitrosoglutathione (GSNO, 10 μM) was limited to 4 h. […] For assessing corticosteroid responsiveness, macrophages were incubated with dexamethasone (1 μM, Sigma) for 1 h followed by LPS (100 ng/ml, Sigma) for additional 4 h.
Total RNA was extracted from the cells by lysis and specific binding to a silica membrance (Qiagen RNeasy kit, Qiagen, Valencia, Calif.), and qRT-PCR was performed by using primers and probe sets for human IL-8, NQO1, GCLM, and iNOS (Assay-on-Demand, Applied Biosystems, Foster City, Calif.). A real-time fluorescent PCR system (ABI 7000 Taqman system, Applied Biosystems) was used to perform these assays. β-actin was used as the normalization control.

[2] = tested on: GSH; conditions: COPD alveolar macrophages, 5 μM for 16 h
Procedure: as §1
(§2) HDAC activity was measured using a fluorescent derivative of ε-acetyl-lysine from Enzo life sciences (Farmingdale, N.Y.) according to the manufacturer's recommendations. HDAC2 was immunoprecipitated for analysis of enzymatic activity.

[3] = tested on: HDAC; conditions: COPD alveolar macrophages, versus vehicle
Procedure: as §1, §2

[4] = tested on: HDAC2; assay: Posttranslational modification of HDAC2 in alveolar macrophages (immunoblot, DAN, biotin-switch); format: cell-based, human
Procedure: S-nitrosylation of proteins was analyzed by anti-SNO antibody, biotin switch assay, and or 2,3-diaminonapthalene (DAN) assay. […] Detail methodology is described in supplementary data.
Macrophage cell or lung tissue extracts were prepared by using 100 μL of immunoprecipitation buffer (50 mM Tris-HCl, pH 8.0, 150 mM NaCl, 1.0% Triton X-100, 0.5% NP-40, 0.1% SDS, 0.5% deoxycholate, and complete protease inhibitor cocktail) from Roche (Morristown, N.J.). The lysis mixture was incubated on ice for 15 minutes and microcentrifuged for 10 minutes at 4° C. Extracts were precleared with 20 μL protein A/G sepharose beads (a 50:50 mix) from Thermo scientific (Rockford, Ill.) and 2 μg of normal IgG. After microcentrifugation, 20 μL of protein A/G sepharose conjugated with 5 μg of antibody was used to precipitate HDAC2 (Santa Cruz Biotechnology, Santa Cruz, Calif.) overnight at 4° C. with rotation. The immune complexes were pelleted with gentle centrifugation, washed twice with 1 mL of immunoprecipitation buffer, and divided equally for the final wash for the activity assay and immunoblotting. For the HDAC assay, immunoprecipitates were resuspended in the activity assay buffer (50 mM TrisHCl, pH 8.0; 10% glycerol; 1 mM dithiothreitol; 0.1 mM EDTA, complete protease inhibitor cocktail). For HDAC2-specific western blotting, immune complexes were washed three times with the immunoprecipitation buffer and finally resuspended in Laemmli buffer for the SDS-PAGE.
For HDAC2-specific nitrosylation detection, cells were lysed in buffer (50 mM Tris-HCl, pH 8.0, 150 mM NaCl, 1% Nonidet P-40, 0.5% deoxycholic acid, 0.1% SDS). […] The pellets were resuspended in 500 μL of PBS.
This assay was performed in the dark.
The Image J program was used for densitometry analyses.

[5] = tested on: elastase; conditions: alveolar macrophages treated with or without sulforaphane
[6] = tested on: Pseudomonas aeruginosa; conditions: THP-1 macrophages, 10 μM for 24 hours
Procedure: To determine intracellular killing, macrophages were treated with vehicle (DMSO) or sulforaphane (10 μM) for 24 hours. Cells were then washed and the medium was replaced with serum-free medium. After the medium replacement, approximately 10^5 CFUs of PA were added to each well. After 1 h, the medium was removed and cells were washed, and the gentamicin-containing medium was added to kill bound, unphagocytosed bacteria. Cells were lysed at the indicated time points, and lysates were plated to determine viable intracellular bacteria.

[7] = tested on: nontypeable Haemophilus influenza (NTHI); conditions: wild-type mice after 6 months of chronic exposure to cigarette smoke
Procedure: C57BL/6J mice were housed under controlled conditions for temperature and humidity, using a 12-hour light/dark cycle. At 8 weeks of age, mice were exposed to CS for (2.5 h/day for 5 days/week) for 1 week or 6 months using a machine that produces cigarette smoke (TE-10, Teague Enterprises) and reference cigarettes (2R4F) with a total suspended particle concentration of 250 mg/m^3 as previously described (T. E. Sussan et al., Proc Natl Acad Sci USA, (Dec. 22, 2008)). Following exposure to CS, mice were inoculated with PA or NTHI at a dose of 10^3 CFU in 50 μl of PBS intranasally. For sulforaphane administration (0.5 mg/mouse of R, S-sulforaphane in PBS), a nebulizer (Aerogen, Inc., Galway, Ireland) designed specifically for small animals was used.
BAL fluid analysis and cell counts with differential staining were carried out as described previously (T. Rangasamy et al., J Clin Invest 114, 1248 (November, 2004)). For analyzing bacterial colonization in lungs, 100 μl of BAL fluid were diluted serially in sterile 0.9% NaCl and aseptically plated and cultured on appropriate (blood [PA] or chocolate [NTHI]) agar plates. After 24 h, the number of CFU was counted.

[8] = tested on: THP-1 macrophages; assay: Phagocytosis of FITC-PA in THP-1 macrophages; format: cell-based, human
Procedure: BMDM were isolated by culturing bone marrow cells in the presence of 10 ng/ml granulocyte-macrophage colony-stimulating factor (PeproTech) for 7 days. Murine macrophages were cultured in RPMI 1640 medium supplemented with 10% FBS and 1% penicillin-streptomycin. The human THP-1 cell line (American Type Culture Collection, Manassas, Va.) was grown in RPMI 1640 medium supplemented with 10% non-heat-inactivated fetal bovine serum and β-mercaptoethanol per manufacturer's instructions. Macrophage differentiation occurred through supplementation with 20 ng/ml Phorbol 12-myristate 13-acetate (Sigma Aldrich, St. Louis, Mo.) for 48 h.
Bacterial phagocytosis was quantified using a flow cytometry analysis.
THP-1 cells were infected with lentivirus particles containing MARCO shRNA (Open Biosystems, Huntsville, Ala.). Puromycin supplemented medium ensured positive selection of lentivirus plasmid-expres sing cells, and knockdown of MARCO mRNA and protein was confirmed by both real-time PCR and western blot.

[9] = GSNO-exposed alveolar macrophages
[10] = nuclear immunopurified HDAC2, compared with vehicle

C[S+]([O-])CCCCN=C=S (stereo not shown) [sulforaphane]
expression of the IL-8 gene [1]: concomitant reduction
GSH levels [2]: significantly elevated
enzymatic activity of total HDAC [3]: significantly elevated
S-nitrosylation of HDAC2 ([4]; 2,3-diaminonaphthalene and biotin-switch assays): reduced
levels of NO-Tyr HDAC2 [4, 9]: decreased the levels of both NO-Tyr HDAC2 and SNO-HDAC2
levels of SNO-HDAC2 [4, 9]: decreased the levels of both NO-Tyr HDAC2 and SNO-HDAC2
ability to reduce the levels of SNOHDAC2 protein ([4]; GSNO-exposed alveolar macrophages in the presence of buthionine sulfoximine): ablated
S-nitrosylation of HDAC2 (SNO-HDAC2) ([4]; anti-SNO antibody immunoblot): significantly reduced
tyrosine nitration of HDAC2 (nitrotyrosine-HDAC2) ([4]; immunopurified HDAC2 from alveolar macrophages, compared with vehicle): Significant reductions
serine phosphorylation of HDAC2 [4, 10]: Significant reductions
ubiquitination of HDAC2 [4, 10]: Significant reductions
elastase activity in cell free media [5]: inhibition of elastase activity
kinetics of intracellular killing [6]: moderate increase in the kinetics of intracellular killing
bacterial colonization (NTHI) in the lungs [7]: inhibited bacterial colonization
phagocytosis of FITC-Pseudomonas aeruginosa ([8]; THP-1 macrophages transfected with Luc-shRNA): significantly elevated phagocytosis
phagocytosis of FITC-Pseudomonas aeruginosa ([8]; THP-1 macrophages with MARCO-shRNA): but not in MARCO-shRNA
